Assay results as given in US20240058464A1 (Fortis Therapeutics, Inc., priority 2021, published 2024).
Where two headings read alike, the source gives them in different places.

Key:
CD46 expression [1] = assay: CD46 expression by RNA-sequencing in unpaired pre-treatment and post-treatment tumor biopsies; type: in vivo, human; settings: for CD46 expression Post: post-treatment biopsies
CD46 expression [2] = tested on: CD46 expression
CD46 expression [3] = assay: CD46 expression by RNA-sequencing in paired tumor biopsies before and after therapy; settings: paired biopsies; for CD46 expression, Post-Treatment Biopsy / CD46 expression, Pre-Treatment Biopsy: RNA-seq log2-transformed counts;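 as to all read-outs here: FFPE human tumor biopsies, exome-capture RNA-seq, reads aligned to GRCh37, counts normalized for GC content, length and depth, summed per gene, log2-transformed, samples paired before versus after therapy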
[4] = Breast Cancer, Post minus Pre, unpaired biopsies, log2-transformed counts
[5] = Breast Cancer, post- vs pre-treatment unpaired biopsies
[6] = Breast Cancer, unpaired, RNA-seq log2-transformed normalized counts
[7] = Glioblastoma, Post minus Pre, unpaired biopsies, log2-transformed counts
[8] = Glioblastoma, post- vs pre-treatment unpaired biopsies
[9] = Glioblastoma, unpaired, RNA-seq log2-transformed normalized counts
[10] = Non-Small Cell Lung Cancer, Post minus Pre, unpaired biopsies, log2-transformed counts
[11] = Non-Small Cell Lung Cancer, post- vs pre-treatment unpaired biopsies
[12] = Non-Small Cell Lung Cancer, unpaired, RNA-seq log2-transformed normalized counts
[13] = Colorectal Cancer, Post minus Pre, unpaired biopsies, log2-transformed counts
[14] = Colorectal Cancer, post- vs pre-treatment unpaired biopsies
[15] = Colorectal Cancer, unpaired, RNA-seq log2-transformed normalized counts
[16] = Clear Cell Renal Cell Carcinoma, Post minus Pre, unpaired biopsies, log2-transformed counts
[17] = Clear Cell Renal Cell Carcinoma, post- vs pre-treatment unpaired biopsies
[18] = Clear Cell Renal Cell Carcinoma, unpaired, RNA-seq log2-transformed normalized counts
[19] = Melanoma, Post minus Pre, unpaired biopsies, log2-transformed counts
[20] = Melanoma, post- vs pre-treatment unpaired biopsies
[21] = Melanoma, unpaired, RNA-seq log2-transformed normalized counts

## C=C1C[C@@H]2[C@H](CC[C@]3(C)C(=O)CC[C@@H]23)[C@@]2(C)C=CC(=O)C=C12 [exemestane]
CD46 expression [1]; [4]
  CD46 expression diff: 0.11
CD46 expression [1]; [5]
  CD46 expression Percentage change: 1.8%
CD46 expression [1]; [6]
  CD46 expression Post: 6.50
CD46 expression [2]
  CD46 expression, Post-Treatment Biopsy: 6.37
  CD46 expression, Pre-Treatment Biopsy: 6.41
CD46 expression [2]; Breast Cancer, paired biopsies
  CD46 expression diff (post minus pre): −0.04
  Percent Change in CD46 expression: 0.5%

## Cn1nnc2c(C(N)=O)ncn2c1=O [temozolomide]
CD46 expression [1]; Endocrine Tumor, Post minus Pre, unpaired biopsies, log2-transformed counts
  CD46 expression diff: −0.04
CD46 expression [1]; Endocrine Tumor, post- vs pre-treatment unpaired biopsies
  CD46 expression Percentage change: −0.8%
CD46 expression [1]; Endocrine Tumor, unpaired, RNA-seq log2-transformed normalized counts
  CD46 expression Post: 5.52
CD46 expression [1]; [7]
  CD46 expression diff: 0.08
CD46 expression [1]; [8]
  CD46 expression Percentage change: 1.6%
CD46 expression [1]; [9]
  CD46 expression Post: 4.85
CD46 expression [3]; Glioblastoma
  CD46 expression diff (post minus pre): 0.04
  Percent Change in CD46 expression: 0.8%
  CD46 expression, Post-Treatment Biopsy: 4.80

## atezolizumab
CD46 expression [1]; [4]
  CD46 expression diff: 0.07
CD46 expression [1]; [5]
  CD46 expression Percentage change: 1.3%
CD46 expression [1]; [6]
  CD46 expression Post: 6.00
CD46 expression [1]; [10]
  CD46 expression diff: 0.00
CD46 expression [1]; [11]
  CD46 expression Percentage change: −0.1%
CD46 expression [1]; [12]
  CD46 expression Post: 6.04
CD46 expression [3]; Breast Cancer
  CD46 expression diff (post minus pre): −0.14
  Percent Change in CD46 expression: −2.4%
  CD46 expression, Post-Treatment Biopsy: 5.99
  CD46 expression, Pre-Treatment Biopsy: 6.14

## bevacizumab
CD46 expression [1]; [4]
  CD46 expression diff: 0.33
CD46 expression [1]; [5]
  CD46 expression Percentage change: 5.4%
CD46 expression [1]; [6]
  CD46 expression Post: 6.34
CD46 expression [1]; [13]
  CD46 expression diff: 0.11
CD46 expression [1]; [14]
  CD46 expression Percentage change: 1.7%
CD46 expression [1]; [15]
  CD46 expression Post: 6.53
CD46 expression [1]; Endometrial Cancer, post minus pre, unpaired biopsies
  CD46 expression diff: −0.26
CD46 expression [1]; Endometrial Cancer, post vs pre, unpaired biopsies
  CD46 expression Percentage change: −4.4%
CD46 expression [1]; Endometrial Cancer, log2-transformed RNA-seq counts
  CD46 expression Post: 5.56
CD46 expression [1]; Endometrial Cancer, pre-treatment biopsies, log2-transformed RNA-seq counts
  CD46 expression Pre: 5.81
CD46 expression [1]; [7]
  CD46 expression diff: −0.02
CD46 expression [1]; [8]
  CD46 expression Percentage change: −0.4%
CD46 expression [1]; [9]
  CD46 expression Post: 4.79
CD46 expression [1]; [10]
  CD46 expression diff: −0.11
CD46 expression [1]; [11]
  CD46 expression Percentage change: −1.8%
CD46 expression [1]; [12]
  CD46 expression Post: 6.25
CD46 expression [1]; Ovarian Cancer, Post minus Pre, unpaired biopsies, log2-transformed counts
  CD46 expression diff: 0.03
CD46 expression [1]; Ovarian Cancer, post- vs pre-treatment unpaired biopsies
  CD46 expression Percentage change: 0.5%
CD46 expression [1]; Ovarian Cancer, unpaired, RNA-seq log2-transformed normalized counts
  CD46 expression Post: 5.75
CD46 expression [3]; Colorectal Cancer
  CD46 expression diff (post minus pre): 0.08
  Percent Change in CD46 expression: 1.3%
  CD46 expression, Post-Treatment Biopsy: 6.33
  CD46 expression, Pre-Treatment Biopsy: 6.25
CD46 expression [3]; Glioblastoma
  CD46 expression diff (post minus pre): 0.06
  Percent Change in CD46 expression: 1.3%
  CD46 expression, Post-Treatment Biopsy: 4.64
  CD46 expression, Pre-Treatment Biopsy: 4.58
CD46 expression [3]; Ovarian Cancer
  CD46 expression diff (post minus pre): −0.11
  Percent Change in CD46 expression: −1.9%
  CD46 expression, Post-Treatment Biopsy: 5.54
  CD46 expression, Pre-Treatment Biopsy: 5.65

## durvalumab
CD46 expression [1]; [10]
  CD46 expression diff: −0.03
CD46 expression [1]; [11]
  CD46 expression Percentage change: −0.5%
CD46 expression [1]; [12]
  CD46 expression Post: 6.04
CD46 expression [3]; Non-Small Cell Lung Cancer
  CD46 expression diff (post minus pre): 0.00
  Percent Change in CD46 expression: 0.0%
  CD46 expression, Post-Treatment Biopsy: 5.95
  CD46 expression, Pre-Treatment Biopsy: 5.95

## ipilimumab
CD46 expression [1]; [16]
  CD46 expression diff: −0.08
CD46 expression [1]; [17]
  CD46 expression Percentage change: −1.4%
CD46 expression [1]; [18]
  CD46 expression Post: 5.48
CD46 expression [1]; [19]
  CD46 expression diff: −0.06
CD46 expression [1]; [20]
  CD46 expression Percentage change: −1.1%
CD46 expression [1]; [21]
  CD46 expression Post: 5.30
CD46 expression [3]; Melanoma
  CD46 expression diff (post minus pre): −0.06
  Percent Change in CD46 expression: −1.1%
  CD46 expression, Post-Treatment Biopsy: 5.26
  CD46 expression, Pre-Treatment Biopsy: 5.31

## nivolumab
CD46 expression [1]; [16]
  CD46 expression diff: −0.06
CD46 expression [1]; [17]
  CD46 expression Percentage change: −1.1%
CD46 expression [1]; [18]
  CD46 expression Post: 5.50
CD46 expression [1]; [19]
  CD46 expression diff: −0.02
CD46 expression [1]; [20]
  CD46 expression Percentage change: −0.5%
CD46 expression [1]; [21]
  CD46 expression Post: 5.31
CD46 expression [1]; [10]
  CD46 expression diff: −0.09
CD46 expression [1]; [11]
  CD46 expression Percentage change: −1.5%
CD46 expression [1]; [12]
  CD46 expression Post: 6.11
CD46 expression [3]; Melanoma
  CD46 expression diff (post minus pre): −0.04
  Percent Change in CD46 expression: −0.7%
  CD46 expression, Post-Treatment Biopsy: 5.26
  CD46 expression, Pre-Treatment Biopsy: 5.29

## panitumumab
CD46 expression [1]; [13]
  CD46 expression diff: 0.28
CD46 expression [1]; [14]
  CD46 expression Percentage change: 4.4%
CD46 expression [1]; [15]
  CD46 expression Post: 6.64
CD46 expression [3]; Colorectal Cancer
  CD46 expression diff (post minus pre): −0.10
  Percent Change in CD46 expression: −1.4%
  CD46 expression, Post-Treatment Biopsy: 6.62
  CD46 expression, Pre-Treatment Biopsy: 6.71

## pembrolizumab
CD46 expression [1]; Bladder Cancer, Post minus Pre, unpaired biopsies, log2-transformed counts
  CD46 expression diff: 0.06
CD46 expression [1]; Bladder Cancer, post- vs pre-treatment unpaired biopsies
  CD46 expression Percentage change: 0.9%
CD46 expression [1]; Bladder Cancer, unpaired, RNA-seq log2-transformed normalized counts
  CD46 expression Post: 6.18
CD46 expression [1]; [4]
  CD46 expression diff: −0.13
CD46 expression [1]; [5]
  CD46 expression Percentage change: −2.2%
CD46 expression [1]; [6]
  CD46 expression Post: 5.95
CD46 expression [1]; [13]
  CD46 expression diff: 0.30
CD46 expression [1]; [14]
  CD46 expression Percentage change: 4.8%
CD46 expression [1]; [15]
  CD46 expression Post: 6.50
CD46 expression [1]; Esophageal Cancer, Post minus Pre, unpaired biopsies, log2-transformed counts
  CD46 expression diff: 0.09
CD46 expression [1]; Esophageal Cancer, post- vs pre-treatment unpaired biopsies
  CD46 expression Percentage change: 1.4%
CD46 expression [1]; Esophageal Cancer, unpaired, RNA-seq log2-transformed normalized counts
  CD46 expression Post: 6.01
CD46 expression [1]; Head and Neck Squamous Cell Carcinoma, Post minus Pre, unpaired biopsies, log2-transformed counts
  CD46 expression diff: 0.17
CD46 expression [1]; Head and Neck Squamous Cell Carcinoma, post- vs pre-treatment unpaired biopsies
  CD46 expression Percentage change: 3.1%
CD46 expression [1]; Head and Neck Squamous Cell Carcinoma, unpaired, RNA-seq log2-transformed normalized counts
  CD46 expression Post: 5.76
CD46 expression [1]; [19]
  CD46 expression diff: 0.00
CD46 expression [1]; [20]
  CD46 expression Percentage change: 0.0%
CD46 expression [1]; [21]
  CD46 expression Post: 5.30
CD46 expression [1]; [10]
  CD46 expression diff: −0.05
CD46 expression [1]; [11]
  CD46 expression Percentage change: −0.7%
CD46 expression [3]; Breast Cancer
  CD46 expression diff (post minus pre): −0.11
  Percent Change in CD46 expression: −1.7%
  CD46 expression, Pre-Treatment Biopsy: 6.28
CD46 expression [3]; Melanoma
  CD46 expression diff (post minus pre): 0.03
  Percent Change in CD46 expression: 0.6%
  CD46 expression, Post-Treatment Biopsy: 5.25
  CD46 expression, Pre-Treatment Biopsy: 5.22
CD46 expression [3]; Non-Small Cell Lung Cancer
  CD46 expression diff (post minus pre): −0.24
  Percent Change in CD46 expression: −3.8%
  CD46 expression, Post-Treatment Biopsy: 6.00
  CD46 expression, Pre-Treatment Biopsy: 6.23
